{"source": "patent US4296206A", "about": "“Irreversible anti-glucocorticoids” (United States of America, priority 1980, dated 1981)", "key": {"[1]": {"molecular_target": "T1, HTC cell glucocorticoid receptors (Rattus norvegicus, UniProt P06536)", "T1 construct": "crude receptors from a well characterized line of rat hepatoma tissue culture (HTC) cells; endogenous in cells; host or cells: HTC (rat hepatoma tissue culture) cells, crude cytosol", "T1 sequence (P06536 1-795)": "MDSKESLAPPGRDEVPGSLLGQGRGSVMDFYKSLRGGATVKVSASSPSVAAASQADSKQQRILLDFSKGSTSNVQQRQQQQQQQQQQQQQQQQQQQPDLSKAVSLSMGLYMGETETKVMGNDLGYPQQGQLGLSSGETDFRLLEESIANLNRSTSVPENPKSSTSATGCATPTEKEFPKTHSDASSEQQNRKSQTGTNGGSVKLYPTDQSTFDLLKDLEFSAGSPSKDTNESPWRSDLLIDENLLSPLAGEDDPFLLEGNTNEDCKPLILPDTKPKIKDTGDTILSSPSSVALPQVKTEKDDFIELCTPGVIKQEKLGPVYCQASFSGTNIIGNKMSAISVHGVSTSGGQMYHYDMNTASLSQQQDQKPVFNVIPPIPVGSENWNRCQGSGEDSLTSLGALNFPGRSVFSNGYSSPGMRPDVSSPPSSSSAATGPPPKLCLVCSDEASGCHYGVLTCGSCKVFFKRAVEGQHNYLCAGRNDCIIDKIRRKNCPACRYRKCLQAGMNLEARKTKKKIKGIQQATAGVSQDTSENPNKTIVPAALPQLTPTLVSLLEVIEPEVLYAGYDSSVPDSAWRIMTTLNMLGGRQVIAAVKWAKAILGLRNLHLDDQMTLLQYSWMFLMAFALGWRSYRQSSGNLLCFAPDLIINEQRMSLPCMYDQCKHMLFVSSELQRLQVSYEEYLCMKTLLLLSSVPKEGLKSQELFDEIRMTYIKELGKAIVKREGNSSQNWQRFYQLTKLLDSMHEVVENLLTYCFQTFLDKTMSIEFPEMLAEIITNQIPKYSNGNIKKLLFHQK", "test": "cell-free exchange assay (3H-dexamethasone exchange binding to pre-formed complexes)", "conditions": "for effect of pre-incubation of steroid-free receptors on subsequent exchange-binding of 3H-dexamethasone: cell-free", "protocol": "(§1) Ir (nujol) ~3400. 1733, 1659, 1359, 1170 cm^-1. […] 59.98; H. 7.32; S. 7.28.\nTo examine this possibility in more detail, a determination was made as to whether the cell-free binding of CM to HTC cell receptors is reversible. Using the previously described exchange assay, crude HTC cell receptors were incubated with enough cortisol, or CM, to occupy ~75% of the receptor based on data of FIG. 1. After ~3 hrs, activated charcoal was added to remove free steroid and to inactivate steroid-free receptors. An excess of ^3 H-dexamethasone was then added to exchange-bind to the previously formed receptor-steroid complexes. […] Thus CM is an irreversible inhibitor of one aspect of glucocorticoid action in broken cells, i.e., the ability of glucocorticoids to exchange-bind to receptor-glucocorticoid complexes.\nFIG. 5 is based on data obtained in studying inhibition of ^3 H-dexamethasone exchange binding to pre-formed complexes by cortisol-21-mesylate. Using the previously described exchange assay, crude HTC cell receptors were pre-incubated with 6×10^-8 M cortisol or 1.35×10^-6 M CM for 2.8 hrs at 0° (final protein concentration=7.0 mg/ml). After addition of activated charcoal to remove free steroid, and to inactivate steroid-free receptors, followed by centrifugation to pellet the activated charcoal, the pre-incubated cytosols were adjusted to 1.9×10^-8 M ^3 H-dexamethasone ±1.1×10^-5 M ^1 H-dexamethasone. After subsequent incubation for the indicated time, activated charcoal was again added to determine the amount of specifically bound ^3 H-dexamethasone (=total-non-specific binding) that was formed by exchange binding in cortisol or CM pre-incubated cytosols. For comparison, the amount of non-specific binding in cortisol or CM pre-incubated receptor solutions is shown in dashed lines."}, "[2]": {"test_system": "rats", "test": "experiment with rats, daily intraperitoneal injections", "type": "in vivo, rat", "description": "In the experiments and uses of CM and DM described above, the toxicity of either compound was negligible. […] In order to be more useful in animals and people, two approaches can be used to reduce this toxicity. […] Second, alternative routes of administration (e.g., oral, intravenous, intramuscular and subcutaneous) might be less toxic."}, "[3]": {"molecular_target": "T2, dexamethasone induction of TAT in HTC cells (Rattus norvegicus, UniProt P06536)", "T2 construct": "endogenous in cells; host or cells: HTC (rat hepatoma tissue culture) cells, whole, monolayer or spinner cultures", "T2 sequence (P06536 1-795)": "T1 sequence (P06536 1-795)", "test": "TAT induction after pre-treatment of HTC cells and washing (reversibility)", "type": "cell-based", "conditions": "for reversal of pre-incubation effect on dexamethasone induction of TAT by washing the cells: pre-incubation overnight, wash, then 2×10^-8 M dexamethasone", "protocol": "One approach to establishing CM as an irreversible inhibitor of TAT induction by glucocorticoids is to determine whether the effects of CM can be reversed by washing the cells.\nAfter incubation at 37°/15 1/2 hrs, ~6×10^7 cells were centrifuged at 600 xg/10 min/22°and resuspended in 200 ml of \"conditioned\" medium that had also been \"incubated\" at 37°/15 1/2 hrs. After a second centrifugation, each cell pellet was again resuspended in 210 ml of \"conditioned\" medium. […] The cells in Wheaton bottles were incubated in a rotating water bath (37°/175 rpm) with 3 ml aliquots being removed at various time points for protein and TAT determinations in the usual manner."}, "[4]": {"test": "cell toxicity in HTC cells (protein content, cell number, trypan blue exclusion)", "conditions": "rat"}, "[5]": {"test_system": "HTC cells"}, "[6]": {"molecular_target": "T2, dexamethasone induction of TAT in HTC cells", "test": "inhibition of dexamethasone induction of TAT activity in whole HTC cells", "type": "cell-based", "protocol": "as §1\nAlternatively, CM could be a anti-inducer, or inhibitor of glucocorticoid action. […] After the usual incubation (18 hrs/37°) and work-up, the specific enzyme activity of TAT was plotted against the concentration of that steroid present in varying amounts. The range of each duplicate determination is shown by error bars when it exceeds the area of the data points. The basal level of TAT activity is indicated by the dashed line."}, "[7]": {"test": "in vitro", "conditions": "rat, htc cells"}, "[8]": {"molecular_target": "T1, HTC cell glucocorticoid receptors", "test": "cell-free competition assay with 3H-dexamethasone, crude HTC cell receptors", "type": "binding", "description": "as §1\nIn general, the introduction of bulky substituents on the C21 of glucocorticoids results in derivatives with a reduced affinity for glucocorticoid receptors as described, for example, in Failla, D. et al., Proc. Nat. Acad. Sci. USA, 72, 3849-3852 (1975). […] The data for FIG. 1 was obtained from a determination of relative affinities of cortisol and cortisol-21-mesylate for HTC cell glucocorticoid receptors in a cell-free competition assay. Duplicate crude HTC cell receptor solutions were incubated for 3 hrs at 0° with 5.6×10^-9 M ^3 H-dexamethasone and varying concentrations of cortisol, or CM (final protein concentration=5.1 mg/ml). A 500 fold excess of ^1 H-dexamethasone was used to determine the level of non-specific binding of ^3 H-steroid. The average specifically bound ^3 H-dexamethasone in the presence of varying concentrations of cortisol or CM was plotted as % of the uncompeted control (variation less than ±4%)."}, "[9]": {"test_system": "tyrosine aminotransferase (TAT) induction in HTC cells", "test": "induction of tyrosine aminotransferase (TAT) in whole HTC cells", "type": "cell-based, rat", "description": "as §1\nHTC cells display several biological responses to glucocorticoids. Tyrosine aminotransferase (TAT) is one specific, glucocorticoid inducible enzyme in HTC cells; and previous extensive studies argue that TAT induction in HTC cells is a primary response to glucocorticoids that is initiated by the binding of steroid to a specific, cytoplasmic receptor. […] The basal level of TAT activity is shown by the dashed line."}}, "note": "Several values for one entry are separate records, joined by “and”; a condition that tells them apart may be missing. Equal values may be shown once. Entries after “also recorded” stand apart in the source; their conditions may differ.", "data": [{"compound": "C[C@]12CCC(=O)C=C1CC[C@@H]1[C@@H]2[C@@H](O)C[C@@]2(C)[C@H]1CC[C@]2(O)C(=O)COS(C)(=O)=O", "note": "[CM, 4-pregnene-11β, 17α, 21-triol-3, 20-dione-21-methanesulfonate]", "values": [{"measurement": "effect of pre-incubation of steroid-free receptors on subsequent exchange-binding of 3H-dexamethasone", "setting": "[1]", "result": "inhibits"}, {"measurement": "inhibition at 1.35 µM", "setting": "[1]; pre-incubation 1.35×10^-6 M CM, ~3 hrs at 0°, read-out: reduction of the ability of receptors to exchange-bind 3H-dexamethasone", "result": "~75", "unit": "%"}, {"measurement": "anti-glucocorticoid activity in rats", "setting": "[2]; daily intraperitoneal injections of 10-50 mg per kilogram", "result": "some anti-glucocorticoid activity"}, {"measurement": "toxicity in rats at higher doses", "setting": "[2]; ≥100 mg/kilogram, intraperitoneal", "result": "peritonitis and death"}, {"measurement": "magnitude of TAT induction 24 hrs after the wash procedure in pre-treated, post-dexamethasone treated cells", "setting": "[3]; 24 hrs after wash", "result": "significantly reduced; also recorded: only partial induction"}, {"measurement": "appearance of TAT in pre-treated cells, delay after TAT induction in EtOH or progesterone pre-treated cells", "setting": "[3]; average of three experiments", "result": 2.7, "unit": "h"}, {"measurement": "time without TAT induction after the wash procedure in pre-treated, post-dexamethasone treated cells", "setting": "[3]; pre-CM, post-dexamethasone", "result": "~ 8 hrs and 6-8 hrs"}, {"measurement": "reversal of pre-incubation effect on dexamethasone induction of TAT by washing the cells", "setting": "[3]", "result": "can not reverse; also recorded: cannot be reversed by washing the cells"}, {"measurement": "cytotoxicity at 13 µM", "setting": "[4]", "result": 12, "unit": "%"}, {"measurement": "viability", "setting": "[4]", "result": "93 to 94", "unit": "%"}, {"measurement": "effect on cell number", "setting": "[5]", "result": "no effect"}, {"measurement": "effect on total cell protein", "setting": "[5]", "result": "~1% increase to 6% decrease"}, {"measurement": "Ki", "setting": "[6]", "result": "~100", "unit": "nM"}, {"measurement": "inhibition of TAT induction by dexamethasone in whole cells", "setting": "[6]", "result": "potent inhibitors"}, {"measurement": "TAT induction by 2×10^-8 M dexamethasone in the presence of the compound", "setting": "[6]; 1.3×10^-6 M CM", "result": "slight but significant increase in TAT"}, {"measurement": "TAT induction by 10^-7 M cortisol in the presence of the compound", "setting": "[6]; 1.3×10^-6 M CM", "result": "unable to induce TAT"}, {"measurement": "duration of activity as anti-glucocorticoid in HTC cell cultures", "setting": "[6]; 37°, tissue culture", "result": "~ 18 hrs and 17-18 hrs"}, {"measurement": "time after which no longer completely inhibitory (some inducibility of TAT returns)", "setting": "[6]; HTC cells", "result": "about 24 hr"}, {"measurement": "cytotoxicity", "setting": "[7]", "result": 20, "unit": "%"}, {"measurement": "cell-free affinity for the glucocorticoid receptors of HTC cells", "setting": "[8]", "result": "low but significant"}, {"measurement": "affinity for glucocorticoid receptors, fold lower than that of the parent steroid cortisol", "setting": "[8]; 3 hrs at 0°, 5.6×10^-9 M 3H-dexamethasone, crude HTC cell receptors", "result": 15, "unit": "fold"}, {"measurement": "apparent Kd with HTC cell glucocorticoid receptors, times greater than the Kd of cortisol", "setting": "[8]; CM", "result": 15, "unit": "times"}, {"measurement": "induction of TAT in whole HTC cells", "setting": "[9]; 18 hrs at 37°", "result": "completely inactive; also recorded: does not induce TAT"}]}, {"compound": "C[C@@H]1C[C@H]2[C@@H]3CCC4=CC(=O)C=C[C@]4(C)[C@@]3(F)[C@@H](O)C[C@]2(C)[C@@]1(O)C(=O)COS(C)(=O)=O", "note": "[DM, 16α-methyl-9α-fluoro-1,4-pregnadiene-11β, 17α, 21-triol-3, 20-dione-21-methane-sulfonate]", "values": [{"measurement": "effect of pre-incubation of steroid-free receptors on subsequent exchange-binding of 3H-dexamethasone", "setting": "[1]", "result": "inhibits"}, {"measurement": "reversal of pre-incubation effect on dexamethasone induction of TAT by washing the cells", "setting": "[3]", "result": "cannot be reversed by washing the cells"}, {"measurement": "inhibition of TAT induction by dexamethasone in whole cells", "setting": "[6]", "result": "potent inhibitors"}, {"measurement": "cell-free affinity for the glucocorticoid receptors of HTC cells", "setting": "[8]", "result": "low but significant"}, {"measurement": "affinity for cell free receptors, fold higher than CM", "setting": "[8]; cell free receptors", "result": "approximately 10 fold"}, {"measurement": "Emax", "setting": "[9]; Rattus norvegicus, whole HTC cells, read-out: induction of TAT in HTC cells, % of full induction", "result": "~25", "unit": "%"}]}]}
